Results from patent US20240208915A1, “A SOLID STATE FORM OF TAFAMIDIS AND A PROCESS FOR ITS PREPARATION” (Quimica Sintetica, S.A., priority 2021, published 2024).
Like-named read-outs stand apart in the source and are kept apart here. Blank lines part the entries; values can stand above or below the compound they belong to.

Legend:
[1] = cited from earlier work
[2] = XRPD pattern after keeping at storage condition in a close vial; assay type: physicochemical; settings: storage condition (room temperature, RH not more than 80%)
Procedure: (§1) The instruments and methods used to characterize the crystals obtained in the examples are as follows: • X-ray powder diffraction analyses (XRPD) were performed on a Bruker D8 Advance X-ray powder diffractometer at about 25° C. and ambient humidity (e.g. 25-35%), using a Cu Kα tube (40 kV, 40 mA, λ=1.5418 Å) as the X-ray source, equipped with a linear Lynxeye XE-T position sensitive detector set at 250 mm from the sample. A Nickel filter (0.0125 mm thickness) was mounted on the primary beam. Data collection was made in coupled mode, theta-theta configuration over an angular range between at least 3° 2 theta and 40° 2theta and a scan step of 0.02°. Fine powder samples were placed in a flat, thin layer in the 12 mm×0.2 mm cavity of a silicon low background plate fixed on a sample holder fitting an autosampler position. The instrument was previously calibrated by means of NIST SRM 1976b. Data acquisition was performed by means of Bruker Diffraction Measurement Center software; data elaboration was performed by means of Crystal Impact Match! or Bruker Diffrac. EVA software.

[3] = Chemical and physical stability over storage (summary statements)
Excerpt: “Storage condition” referred to 2-(3,5-dichlorophenyl)-1,3-benzoxazole-6-carboxylic acid and its salt means that all the forms are stored in a close vessel at room temperature, ambient pressure and at relative humidity (RH) degree not more than 80%.

[4] = Stability studies: XRPD to evaluate any change in crystalline form; assay type: physicochemical
Procedure: as §1
(§2) Vials containing 100 mg each of alpha form of present invention are stored at the following conditions, wherein RH is referred to relative humidity: • room Temperature (RT) and 80% RH, open vial • 40° C. and 75% RH, open vial
(§3) The sample were analysed before the storage (initial data), 8 days, 15 days and 4 weeks using X-ray powder diffractogram (XRPD) to evaluate any change in crystalline form and using HPLC to measure the chemical purity.
(§4) 700 mg of tafamidis form 4 of obtained according to present invention are stored at the following conditions, wherein RH is referred to relative humidity: • 40° C. and 75% RH, type A container.
(§5) The samples were analysed before the storage (initial data), after 1 month, 3 months, 6 months using X-ray powder diffractogram (XRPD) to evaluate any change in crystalline form and using HPLC to measure the chemical purity.

[5] = Stability studies: HPLC to measure the chemical purity; assay type: physicochemical
Procedure: as §2, §3, §4, §5

SMILES: O=C(O)c1ccc2nc(-c3cc(Cl)cc(Cl)c3)oc2c1 [amorphous, 2-(3,5-dichlorophenyl)-1,3-benzoxazole-6-carboxylic acid]
solid form conversion upon storage ([1]; 1 week at 70° C. and 75% relative humidity): converts into crystalline form 4

SMILES: O=C(O)c1ccc2nc(-c3cc(Cl)cc(Cl)c3)oc2c1 [form 1, 2-(3,5-dichlorophenyl)-1,3-benzoxazole-6-carboxylic acid]
change of XRPD pattern ([2]; 8 months): does not change its XRPD pattern
thermodynamic stability of the form ([1]; room temperature): thermodynamically stable form
chemical and physical stability (XRPD pattern, degradation) ([3]; kept at storage condition): chemically and physically stable

SMILES: O=C(O)c1ccc2nc(-c3cc(Cl)cc(Cl)c3)oc2c1 [form I, 2-(3,5-dichlorophenyl)-1,3-benzoxazole-6-carboxylic acid]
solid form conversion upon drying ([1]; vacuum dryer at 100-160° C. (WO 2020/232325, examples 16 to 20)): convert into form 4

Second part, led by results:

change of XRPD pattern ([2]; 10 months): does not change its XRPD pattern
chemical and physical stability ([3]; stored for several months at 40° C. and 75% RH): chemically and physically stable
SMILES: O=C(O)c1ccc2nc(-c3cc(Cl)cc(Cl)c3)oc2c1 [form 4, 2-(3,5-dichlorophenyl)-1,3-benzoxazole-6-carboxylic acid]
transformation into a different crystalline form (XRPD) ([4]; 40° C., 75% RH, type A container, after 6 months): no signs of transformation into a different crystalline form
thermodynamic stability of the form ([1]; high temperature): more stable

transformation into a different crystalline form (XRPD) ([4]; 40° C., 75% RH, open vial, after 4 weeks): no signs of transformation
transformation into a different crystalline form (XRPD) ([4]; room temperature, 80% RH, open vial, after 4 weeks): no signs of transformation
chemical and physical stability (polymorphic form, chemical purity) ([3]; storage between 15 to 60° C. for several weeks at different degree of humidity): chemically and physically stable
SMILES: O=C(O)c1ccc2nc(-c3cc(Cl)cc(Cl)c3)oc2c1 [form alpha, 2-(3,5-dichlorophenyl)-1,3-benzoxazole-6-carboxylic acid]
chemical purity by HPLC versus initial profile ([5]; 40° C., 75% RH, open vial, up to 4 weeks): does not present a significant worsening of the purity
chemical purity by HPLC versus initial profile ([5]; 40° C., 75% RH, type A container, up to 6 months): does not present a significant worsening of the purity
chemical purity by HPLC versus initial profile ([5]; room temperature, 80% RH, open vial, up to 4 weeks): does not present a significant worsening of the purity
